Reference: PubChem BioAssay (NCI)
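Test compounds were applied to cells in 96-well plates for 48 hours at 5 doses. GI50 marks 50% less growth. At the TGI there is no net growth.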

Assays:
Experiment in all cases: growth of human tumour cells (NCI), 48 h
786-0 renal = tested on: 786-0 renal
A498 renal = tested on: A498 renal
A549 NSCLC = tested on: A549 NSCLC
ACHN renal = tested on: ACHN renal
BT-549 breast = tested on: BT-549 breast
CAKI-1 renal = tested on: CAKI-1 renal
COLO 205 colon = tested on: COLO 205 colon
DU-145 prostate = tested on: DU-145 prostate
EKVX NSCLC = tested on: EKVX NSCLC
HCC-2998 colon = tested on: HCC-2998 colon
HCT-116 colon = tested on: HCT-116 colon
HCT-15 colon = tested on: HCT-15 colon
HL-60(TB) leukemia = tested on: HL-60(TB) leukemia
HOP-62 NSCLC = tested on: HOP-62 NSCLC
HOP-92 NSCLC = tested on: HOP-92 NSCLC
HS 578T breast = tested on: HS 578T breast
HT29 colon = tested on: HT29 colon
IGROV1 ovarian = tested on: IGROV1 ovarian
K-562 leukemia = tested on: K-562 leukemia
KM12 colon = tested on: KM12 colon
LOX IMVI melanoma = tested on: LOX IMVI melanoma
M14 melanoma = tested on: M14 melanoma
MALME-3M melanoma = tested on: MALME-3M melanoma
MCF7 breast = tested on: MCF7 breast
MDA-MB-231 breast = tested on: MDA-MB-231 breast
MDA-MB-435 = tested on: MDA-MB-435
MOLT-4 leukemia = tested on: MOLT-4 leukemia
NCI-H226 lung = tested on: NCI-H226 lung
NCI-H23 lung = tested on: NCI-H23 lung
NCI-H460 lung = tested on: NCI-H460 lung
NCI-H522 lung = tested on: NCI-H522 lung
NCI/ADR-RES ovarian = tested on: NCI/ADR-RES ovarian
OVCAR-3 ovarian = tested on: OVCAR-3 ovarian
OVCAR-4 ovarian = tested on: OVCAR-4 ovarian
OVCAR-5 ovarian = tested on: OVCAR-5 ovarian
OVCAR-8 ovarian = tested on: OVCAR-8 ovarian
PC-3 prostate = tested on: PC-3 prostate
RPMI-8226 leukemia = tested on: RPMI-8226 leukemia
RXF 393 renal = tested on: RXF 393 renal
SF-268 CNS = tested on: SF-268 CNS
SF-295 CNS = tested on: SF-295 CNS
SF-539 CNS = tested on: SF-539 CNS
SK-MEL-2 melanoma = tested on: SK-MEL-2 melanoma
SK-MEL-28 melanoma = tested on: SK-MEL-28 melanoma
SK-MEL-5 melanoma = tested on: SK-MEL-5 melanoma
SK-OV-3 ovarian = tested on: SK-OV-3 ovarian
SN12C renal = tested on: SN12C renal
SNB-19 CNS = tested on: SNB-19 CNS
SNB-75 CNS = tested on: SNB-75 CNS
SR leukemia = tested on: SR leukemia
SW-620 colon = tested on: SW-620 colon
T-47D breast = tested on: T-47D breast
TK-10 renal = tested on: TK-10 renal
U251 CNS = tested on: U251 CNS
UACC-257 melanoma = tested on: UACC-257 melanoma
UACC-62 melanoma = tested on: UACC-62 melanoma
UO-31 renal = tested on: UO-31 renal

## COc1ccc2oc(=O)cc(C3c4ccc([nH]4)C(c4cc(=O)oc5ccc(OC)cc45)c4ccc([nH]4)C(c4cc(=O)oc5ccc(OC)cc45)c4ccc([nH]4)C(c4cc(=O)oc5ccc(OC)cc45)c4ccc3[nH]4)c2c1 (centres undefined)
786-0 renal
  GI50: 1000 nM
  TGI: 2200 nM
A498 renal
  GI50: 4090 nM
  TGI: 12700 nM
A549 NSCLC
  GI50: 4230 nM
  TGI: 14300 nM
ACHN renal
  GI50: 2120 nM
  TGI: 6710 nM
BT-549 breast
  GI50: 2020 nM
  TGI: 5360 nM
CAKI-1 renal
  GI50: 2160 nM
  TGI: 6770 nM
COLO 205 colon
  GI50: 1750 nM
  TGI: 3600 nM
DU-145 prostate
  GI50: 2070 nM
  TGI: 4750 nM
EKVX NSCLC
  GI50: 7580 nM
  TGI: 22300 nM
HCC-2998 colon
  GI50: 2170 nM
  TGI: 4060 nM
HCT-116 colon
  GI50: 570 nM
  TGI: 1930 nM
HCT-15 colon
  GI50: 399 nM
  TGI: 1530 nM
HL-60(TB) leukemia
  GI50: 357 nM
  TGI: 976 nM
HOP-62 NSCLC
  GI50: 2730 nM
  TGI: 9560 nM
HOP-92 NSCLC
  GI50: 2050 nM
  TGI: 6500 nM
HS 578T breast
  GI50: 2800 nM
  TGI: 9430 nM
HT29 colon
  GI50: 2280 nM
  TGI: 5440 nM
IGROV1 ovarian
  GI50: 2440 nM
  TGI: 10800 nM
K-562 leukemia
  GI50: 413 nM
  TGI: 2030 nM
KM12 colon
  GI50: 2910 nM
  TGI: 10800 nM
LOX IMVI melanoma
  GI50: 814 nM
  TGI: 2430 nM
M14 melanoma
  GI50: 1240 nM
  TGI: 4600 nM
MALME-3M melanoma
  GI50: 1540 nM
  TGI: 3730 nM
MCF7 breast
  GI50: 364 nM
  TGI: 2160 nM
MDA-MB-231 breast
  GI50: 2150 nM
  TGI: 9040 nM
MDA-MB-435
  GI50: 1900 nM
  TGI: 6660 nM
MOLT-4 leukemia
  GI50: 414 nM
  TGI: 4240 nM
NCI-H226 lung
  GI50: 1360 nM
  TGI: 4630 nM
NCI-H23 lung
  GI50: 2370 nM
  TGI: 6420 nM
NCI-H460 lung
  GI50: 3110 nM
  TGI: 10400 nM
NCI-H522 lung
  GI50: 1650 nM
  TGI: 3160 nM
NCI/ADR-RES ovarian
  GI50: 594 nM
  TGI: 24800 nM
OVCAR-3 ovarian
  GI50: 230 nM
  TGI: 611 nM
OVCAR-4 ovarian
  GI50: 1260 nM
  TGI: 2780 nM
OVCAR-5 ovarian
  GI50: 2980 nM
  TGI: 11100 nM
OVCAR-8 ovarian
  GI50: 619 nM
  TGI: 2780 nM
PC-3 prostate
  GI50: 2210 nM
  TGI: 6760 nM
RPMI-8226 leukemia
  GI50: 432 nM
  TGI: 2040 nM
RXF 393 renal
  GI50: 318 nM
  TGI: 950 nM
SF-268 CNS
  GI50: 2890 nM
  TGI: 11200 nM
SF-295 CNS
  GI50: 2820 nM
  TGI: 10600 nM
SF-539 CNS
  GI50: 1700 nM
  TGI: 3910 nM
SK-MEL-2 melanoma
  GI50: 3020 nM
  TGI: 9500 nM
SK-MEL-28 melanoma
  GI50: 2480 nM
  TGI: 12900 nM
SK-MEL-5 melanoma
  GI50: 2210 nM
  TGI: 9070 nM
SK-OV-3 ovarian
  GI50: 2450 nM
  TGI: 7330 nM
SN12C renal
  GI50: 3120 nM
  TGI: 12700 nM
SNB-19 CNS
  GI50: 5480 nM
  TGI: 18300 nM
SNB-75 CNS
  GI50: 2710 nM
  TGI: 14800 nM
SR leukemia
  GI50: 371 nM
  TGI: 1660 nM
SW-620 colon
  GI50: 389 nM
  TGI: 1690 nM
T-47D breast
  GI50: 475 nM
  TGI: 3690 nM
TK-10 renal
  GI50: 1580 nM
  TGI: 2950 nM
U251 CNS
  GI50: 4000 nM
  TGI: 13900 nM
UACC-257 melanoma
  GI50: 2250 nM
  TGI: 13200 nM
UACC-62 melanoma
  GI50: 2690 nM
  TGI: 7810 nM
UO-31 renal
  GI50: 1220 nM
  TGI: 3740 nM
